Values after ≈ are worked out from the molar mass of the structure shown. Where two headings read alike, the source gives them in different places.
Key:
[1] = molecular target: recombinant human MEK 1 (MAPKK) and recombinant human ERK2 (MAPK); assay: Mitogen Activated Protein Kinase (MAPK) assay, two component coupled MEK 1 / ERK2; type: biochemical; settings: separate entries for the same compound = evaluated more than one time;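 further: MEK 1-activated ERK2 phosphorylates MBP or Myc peptide with 33P-ATP, filter capture and scintillation counting, inhibitor preincubated with ERK2 30 min at 0 °C, inhibition relative to uninhibited control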
Procedure: To evaluate inhibitors of the MAP (mitogen activated protein) kinase a two component coupled standard pharmacological test procedure, which measures phosphorylation of a serine/threonine residue in an appropriate sequence in the substrate in the presence and absence of a putative inhibitor, was used. Recombinant human MEK 1 (MAPKK) was first used to activate recombinant human ERK2 (MAPK) and the activated MAPK (ERK) was incubated with substrate (MBP peptide or MYC peptide) in the presence of ATP, Mg^+2 and radiolabeled ^33P ATP. The phosphorylated peptide was captured on a P 81 phosphocellulose filter (paper filter or embedded in microtiter plate) washed and counted by scintillation methods.
The peptide substrates used in the assay are MBP, peptide substrate ([sequence]), or synthetic Myc substrate, ([sequence]•5 TFA. The recombinant enzymes used were prepared as GST fusion proteins of human ERK 2 and human MEK 1. Inhibitor samples were prepared as 10X stocks in 10% DMSO and an appropriate aliquot was used to deliver either 10 ug/ml for a single point screening dose or 100, 10, 1, and 0.1 uM final concentration for a dose response curve. Final DMSO concentrations were less than or equal to 1%.
The reaction was run as follows in 50 mM Tris kinase buffer, pH 7.4 in a reaction volume of 50 ul. The appropriate volume of kinase buffer and inhibitor sample was added to the tube. Appropriate dilution of enzyme was delivered to give 2-5 ug recombinant MAPK (Erk ) per tube. The inhibitor was incubated with MAPK (Erk) for 30 min at 0 deg. […] Recombinant Mek (MAPKK) ( 0.5-2.5 ug) or fully activated Mek (0.05-0.1 units) was added to activate the Erk and incubated for 30 min at 30° C. […] Samples were incubated at 30°C for 30 minutes and the reaction was stopped by adding 25 µl of ice cold 10 %TCA .After samples were chilled on ice for 30 min, 20 µl of sample was transferred onto P 81 phosphocellulose filter paper or appropriate MTP with embedded P 81 filter. Filter papers or MTP were washed 2 times with a large volume of 1% acetic acid, then 2 times with water. The filters or MTP were briefly air dried before addition of scintillant and samples were counted in the appropriate scintillation counter set up for reading ^33P isotope.
The raw data was captured as cpm. Sample replicates were averaged and corrected for background count. Mean cpm data was tabulated by group and % inhibition by a test compound was calculated as (corrected cpm control- corrected. cpm sample/control) X 100 = % inhibition.

CCRF-CFM = assay: Inhibition of cancer cell growth as measured by cell number, CCRF-CFM; type: cell-based; settings: Homo sapiens, 48 h, read-out: IC50 CCRF-CFM
B7474 = assay: Inhibition of cancer cell growth as measured by cell number, B7474; type: cell-based; settings: Homo sapiens, 48 h, read-out: IC50 B7474
A27805 = assay: Inhibition of cancer cell growth as measured by cell number, A27805; type: cell-based; settings: Homo sapiens, 48 h, read-out: IC50 A27805
CX1 = assay: Inhibition of cancer cell growth as measured by cell number, CX1; type: cell-based; settings: Homo sapiens, CX-1, 48 h, read-out: IC50 CX1
MIP = assay: Inhibition of cancer cell growth as measured by cell number, MIP; type: cell-based; settings: Homo sapiens, read-out: IC50 MIP
DU145 = assay: Inhibition of cancer cell growth as measured by cell number, DU145; type: cell-based; settings: Homo sapiens, DU-145, 48 h, read-out: IC50 DU145
T47D = assay: Inhibition of cancer cell growth as measured by cell number, T47D; type: cell-based; settings: Homo sapiens, 48 h, read-out: IC50 T47D
SKBR3 = assay: Inhibition of cancer cell growth as measured by cell number, SKBR3; type: cell-based, human; settings: Homo sapiens, SK-BR-3, 48 h, read-out: IC50 SKBR3, cell number, Sulforhodamine B, 48 hours exposure; Table 7;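 further: SK-BR-3 cells were selected as a line overexpressing HER2/neu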
Source text: (§1) The cell lines were chosen since they overexpressed epidermal growth factor receptor (EGFR) (i.e. A431) or HER2/neu (SKBR3), or had little to no expression of the these receptors (SW620, LOX, MCF7).

LX1 = assay: Inhibition of cancer cell growth as measured by cell number, LX1; type: cell-based; settings: Homo sapiens, LX-1, 48 h, read-out: IC50 LX1
CCL228 = assay: Inhibition of cancer cell growth as measured by cell number, CCL228; type: cell-based; settings: Homo sapiens, 48 h, read-out: IC50 CCL228
MCF7 = assay: Inhibition of cancer cell growth as measured by cell number, MCF7; type: cell-based, human; settings: Homo sapiens, MCF7, 48 h, read-out: IC50 MCF7, cell number, Sulforhodamine B, 48 hours exposure; Table 5;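 further: MCF7 was included as a line with little or no EGFR or HER2/neu expression, in contrast to the receptor-overexpressing lines of the panel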
Source text: as §1

COLO205 = assay: Inhibition of cancer cell growth as measured by cell number, COLO205; type: cell-based; settings: Homo sapiens, COLO 205, 48 h, read-out: IC50 COLO205
HL60 = assay: Inhibition of cancer cell growth as measured by cell number, HL60; type: cell-based; settings: Homo sapiens, HL-60, 48 h, read-out: IC50 HL60
NHEK = assay: Inhibition of cell growth by incorporation of [3H]-thymidine, NHEK; type: cell-based, human; settings: Homo sapiens, read-out: IC50 NHEK
LNCAP = assay: Inhibition of cancer cell growth as measured by cell number, LNCAP; type: cell-based; settings: Homo sapiens, 48 h, read-out: IC50 LNCAP
A549 = assay: Inhibition of cancer cell growth as measured by cell number, A549; type: cell-based; settings: Homo sapiens, A549, 48 h, read-out: IC50 A549
LS174T = assay: Inhibition of cancer cell growth as measured by cell number, LS174T; type: cell-based; settings: Homo sapiens, 48 h, read-out: IC50 LS174T
CACO2 = assay: Inhibition of cancer cell growth as measured by cell number, CACO2; type: cell-based; settings: Homo sapiens, Caco-2, 48 h, read-out: IC50 CACO2
SW620 = assay: Inhibition of cancer cell growth as measured by cell number, SW620; type: cell-based, human; settings: Homo sapiens, SW-620, 48 h, read-out: IC50 SW620, cell number, Sulforhodamine B, 48 hours exposure; Table 4;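 further: SW620 was included as a cell line with little or no EGFR or HER2/neu expression, in contrast to receptor-overexpressing lines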
Source text: as §1

A431 [2] = assay: Inhibition of cancer cell growth as measured by cell number, A431; type: cell-based, human; settings: Homo sapiens, A-431, 48 h, read-out: IC50 A431, cell number, Sulforhodamine B, 48 hours exposure; Table 6;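 further: human A431 line, picked because it overexpresses epidermal growth factor receptor (EGFR)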
Source text: as §1

HCT15 = assay: Inhibition of cancer cell growth as measured by cell number, HCT15; type: cell-based; settings: Homo sapiens, HCT-15, 48 h, read-out: IC50 HCT15
A431 [3] = assay: Inhibition of cell growth by incorporation of [3H]-thymidine, A431; type: cell-based, human; settings: Homo sapiens, A-431, read-out: IC50 A431
Procedure: Representative compounds of this invention were evaluated for their ability to inhibit the growth of the cell lines described below in vitro. The inhibition is quantitated by measuring the decrease in the incorporation of radio-labeled thymidine when the cells are grown in the presence of the inhibitor. […] Cells were routinely grown in a humidified incubator in 5% CO2 in air.
Cells were seeded at 10,000 cells/well in 96 well plates in complete media and allowed to grow to log phase. At this stage the complete media was replaced with media containing 0.5% FBS (for cells growing in 10% FBS) or media lacking epidermal growth factor (EGF) (for cells growing in serum free media). […] Media with test compound was then removed and complete media was added back. The cells were allowed to grow for 18 hours. This is followed by incubation in [^3H]thymidine (1mCi/ml in serum/EGF media) for 4 hours. Cells were lysed in 0.5 M NaOH for at least 30 min at 37°C and radioactivity analyzed.
The % inhibition of the compound evaluated was determined for at least three different concentrations and the IC50 value evaluated from the dose response curve. […] CPM(control) is in units of counts per minute and is a number expressing the amount of [^3H]thymidine incorporated onto the DNA when cells are grown in the absence of test compound as measured by liquid scintillation counting.

LOX = assay: Inhibition of cancer cell growth as measured by cell number, LOX; type: cell-based, human; settings: Homo sapiens, LOX, 48 h, read-out: IC50 LOX, cell number, Sulforhodamine B, 48 hours exposure; Table 6;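 further: LOX cells served as a line with low or absent EGFR and HER2/neu expression, in contrast to receptor-overexpressing lines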
Source text: as §1

HTB161 = assay: Inhibition of cancer cell growth as measured by cell number, HTB161; type: cell-based; settings: Homo sapiens, 48 h, read-out: IC50 HTB161
SW948 = assay: Inhibition of cancer cell growth as measured by cell number, SW948; type: cell-based; settings: Homo sapiens, SW948, 48 h, read-out: IC50 SW948
PC3 = assay: Inhibition of cancer cell growth as measured by cell number, PC3; type: cell-based; settings: Homo sapiens, PC-3, 48 h, read-out: IC50 PC3
A2780DDP = assay: Inhibition of cancer cell growth as measured by cell number, A2780DDP; type: cell-based; settings: Homo sapiens, 48 h, read-out: IC50 A2780DDP
NEC = assay: Inhibition of cancer cell growth as measured by cell number, NEC; type: cell-based; settings: Homo sapiens, 48 h, read-out: IC50 NEC
[4] = molecular target: epidermal growth factor receptor kinase (Homo sapiens, UniProt P00533); assay: biochemical
Procedure: The enzyme was obtained as a membrane extract of A431 cells (American Type Culture Collection, Rockville, MD). A431 cells were grown in T175 flasks to 80% confluency. The cells were washed twice with phosphate buffered saline (PBS) without Ca^2+. Flasks were rotated for 1.5 hours in 20 ml PBS with 1.0 mM ethylenediaminetetraacetic acid (EDTA) at room temperature and centrifuged at 600g for 10 minutes. The cells were solubilized in 1 ml per 5 x 10^6 cells of cold lysis buffer {10mM 4-(2-hydroxyethyl)-1-piperazineethane-sulfonic acid (HEPES), pH 7.6, 10 mM NaCl, 2mM EDTA, 1mM phenylmethyl-sulfonyl-fluoride (PMSF), 10 mg/ml aprotinin, 10 mg/ml leupeptin, 0.1 mM sodium orthovanadate} in a Dounce homogenizer with 10 strokes on ice. The lysate was centrifuged at 600g for 10 minutes first to clear cell debris and the supernatant further centrifuged at 100,000 g for 30 min at 4°C. The membrane pellet was suspended in 1.5 ml HNG buffer (50 mM HEPES, pH 7.6, 125 mM NaCl, 10% glycerol). The membrane extract was divided into aliquots, immediately frozen in liquid nitrogen and stored at -70°C.
Compounds to be evaluated were made into 10 mg/ml stock solutions in 100% dimethylsulfoxide (DMSO). Prior to experiment, stock solutions were diluted to 500 mM with buffer (30 mM Hepes pH 7.4) and then serially diluted to the desired concentration.
An aliquot of the A431 membrane extract (10 mg/ml) was diluted in 30 mM HEPES (pH 7.4) to give a protein concentration of 50 ug/ml. […] To this was added the ^33p-ATP (10 mCi/ml) diluted 1:10 in assay buffer along with the substrate peptide at a concentration of 0.5 mM (control reactions get no test compound) and the reaction was allowed to proceed for 30 min at 30°C. The reaction was stopped with 10% TCA and left on ice for at least 10 min after which tubes were microcentrifuged at full speed for 15 min. The a portion of the supernatants were spotted on P81 phosphocellulose discs and washed twice in 1% acetic acid then water for 5 min each followed by scintillation counting. […] The % inhibition of the test compound was determined for at least three different concentrations and the IC50 value was evaluated from the dose response curve. […] CPM(control) is in units of counts per minute and was a number expressing the amount of radiolabeled ATP (g-^33P) incorporated into the RR-SRC peptide substrate by the enzyme after 30 minutes at 30°C in the absence of test compound as measured by liquid scintillation counting. The CPM values were corrected for the background counts produced by ATP in the absence of the enzymatic reaction. The IC50 values reported in TABLE 1 are averages of the number of tests conducted.

[5] = cell number, Sulforhodamine B, 48 hours exposure, Table 4

epidermal growth factor receptor kinase, sequence (P00533 25-1210): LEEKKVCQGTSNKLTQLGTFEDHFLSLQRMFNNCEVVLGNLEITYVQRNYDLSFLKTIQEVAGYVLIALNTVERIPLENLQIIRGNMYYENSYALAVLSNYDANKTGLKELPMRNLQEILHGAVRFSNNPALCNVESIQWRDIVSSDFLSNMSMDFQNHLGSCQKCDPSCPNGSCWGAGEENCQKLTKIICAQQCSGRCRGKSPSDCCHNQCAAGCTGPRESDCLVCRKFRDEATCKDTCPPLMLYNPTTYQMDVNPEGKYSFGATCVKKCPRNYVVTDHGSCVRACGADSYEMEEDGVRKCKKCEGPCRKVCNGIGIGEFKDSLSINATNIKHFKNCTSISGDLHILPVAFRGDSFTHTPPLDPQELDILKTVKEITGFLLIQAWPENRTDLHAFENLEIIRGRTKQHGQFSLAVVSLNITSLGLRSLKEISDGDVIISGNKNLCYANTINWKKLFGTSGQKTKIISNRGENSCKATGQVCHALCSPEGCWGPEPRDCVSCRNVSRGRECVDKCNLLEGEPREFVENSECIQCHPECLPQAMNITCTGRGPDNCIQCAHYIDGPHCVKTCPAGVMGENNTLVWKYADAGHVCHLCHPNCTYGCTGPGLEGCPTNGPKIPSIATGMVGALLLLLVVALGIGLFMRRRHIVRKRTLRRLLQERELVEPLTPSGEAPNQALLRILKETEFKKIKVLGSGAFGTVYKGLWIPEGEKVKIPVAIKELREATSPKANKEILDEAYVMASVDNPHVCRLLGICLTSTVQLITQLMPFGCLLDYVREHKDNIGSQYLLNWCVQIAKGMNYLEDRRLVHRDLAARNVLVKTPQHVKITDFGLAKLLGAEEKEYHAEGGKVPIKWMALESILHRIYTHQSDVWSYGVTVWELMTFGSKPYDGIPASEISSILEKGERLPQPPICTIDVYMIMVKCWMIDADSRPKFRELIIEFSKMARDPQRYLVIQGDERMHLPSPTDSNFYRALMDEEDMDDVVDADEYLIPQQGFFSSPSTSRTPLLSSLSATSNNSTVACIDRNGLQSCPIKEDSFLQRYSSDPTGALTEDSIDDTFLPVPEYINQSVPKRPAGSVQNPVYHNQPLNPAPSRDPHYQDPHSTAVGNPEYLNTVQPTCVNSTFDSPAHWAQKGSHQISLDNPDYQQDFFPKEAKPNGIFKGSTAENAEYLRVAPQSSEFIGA

| SMILES | IC50 [1] [µM] | IC50 (CCRF-CFM) [µg/mL] | IC50 (B7474) [µg/mL] | IC50 (A27805) [µg/mL] | IC50 (CX1) [µg/mL] | IC50 (DU145) [µg/mL] | IC50 (T47D) [µg/mL] | IC50 (SKBR3) [µg/mL] | IC50 (LX1) [µg/mL] | IC50 (CCL228) [µg/mL] | IC50 (MCF7) [µg/mL] | IC50 (COLO205) [µg/mL] | IC50 (HL60) [µg/mL] | IC50 (NHEK) [µM] | IC50 (LNCAP) [µg/mL] | IC50 (A549) [µg/mL] | IC50 (LS174T) [µg/mL] | IC50 (CACO2) [µg/mL] | IC50 (SW620) [µg/mL] | IC50 (A431 [2]) [µg/mL] | also measured |
| --- | --- | --- | --- | --- | --- | --- | --- | --- | --- | --- | --- | --- | --- | --- | --- | --- | --- | --- | --- | --- | --- |
| COc1cc2ncc(C#N)c(Nc3cccc(Br)c3)c2cc1N [Example 7, 6-Amino-4-[(3-bromophenyl)amino] -7-methoxy-3-quinolinecarbonitrile] | 25 | 3.44 (≈ 9.3 µM) | 3.88 (≈ 10.5 µM) | 4.66 (≈ 12.6 µM) | 4.88 (≈ 13.2 µM) | 1.09 (≈ 2.95 µM) | 5.17 (≈ 14 µM) | 5.6 (≈ 15.2 µM) | 6.3 (≈ 17.1 µM) | 6.25 (≈ 16.9 µM) | 5.67 (≈ 15.4 µM) | 4.83 (≈ 13.1 µM) | 2.63 (≈ 7.13 µM) | 4.5 | 2.19 (≈ 5.92 µM) | 5.93 (≈ 16.1 µM) | 3.23 (≈ 8.75 µM) | 2.3 (≈ 6.22 µM) | 5.84 (≈ 15.8 µM) | 1.06 (≈ 2.86 µM) | IC50 (MIP; [5]): 2.39 µg/mL (≈ 6.48 µM); IC50 (HCT15): 3.98 µg/mL (≈ 10.8 µM); IC50 (A431 [3]): > 50 µM; IC50 (LOX): 1.45 µg/mL (≈ 3.92 µM); IC50 (HTB161): 2.12 µg/mL (≈ 5.75 µM); IC50 (SW948): 5.85 µg/mL (≈ 15.9 µM); IC50 (PC3): 7.22 µg/mL (≈ 19.6 µM); IC50 (A2780DDP): 4.91 µg/mL (≈ 13.3 µM); IC50 (NEC): 5.18 µg/mL (≈ 14 µM) |
| CC#CC(=O)Nc1cc2c(Nc3cccc(Br)c3)c(C#N)cnc2cc1OC [Example 8, N-[4-[(3-Bromophenyl)amino]-3-cyano-7-methoxy-6-guinolinyl]-2-butynamide] | > 100 | 0.823 (≈ 1.89 µM) | 55.5 (≈ 127 µM) | 0.912 (≈ 2.09 µM) | 7.55 (≈ 17.3 µM) | 6.47 (≈ 14.9 µM) | 39.5 (≈ 90.7 µM) | 38.3 (≈ 87.9 µM) | 0.932 (≈ 2.14 µM) | 8.67 (≈ 19.9 µM) | 53.2 (≈ 122 µM) | 2.49 (≈ 5.72 µM) | 18.9 (≈ 43.5 µM) | 0.2 | 59.4 (≈ 137 µM) | 7.28 (≈ 16.7 µM) | 2.03 (≈ 4.66 µM) | 2.33 (≈ 5.35 µM) | 2.5 (≈ 5.75 µM) | 9.59 (≈ 22 µM) | IC50 (MIP; [5]): 0.354 µg/mL (≈ 0.813 µM); IC50 (HCT15): 10.9 µg/mL (≈ 25.1 µM); IC50 (A431 [3]): 40 µM; IC50 (LOX): 0.647 µg/mL (≈ 1.49 µM); IC50 [4]: 0.15 µM; IC50 (HTB161): 98.8 µg/mL (≈ 227 µM); IC50 (SW948): 86.9 µg/mL (≈ 200 µM); IC50 (PC3): 53.4 µg/mL (≈ 123 µM); IC50 (A2780DDP): 6.79 µg/mL (≈ 15.6 µM); IC50 (NEC): 9.3 µg/mL (≈ 21.4 µM) |
| CC#CC(=O)Nc1ccc2ncc(C#N)c(Nc3cccc(Br)c3)c2c1 [Example 15, N-[4-[(3-Bromophenyl)amino]-3-cyano-6-quinolinyl]-2-butynamide] | > 100 | > 33 | > 33 | 33 (≈ 81.4 µM) | 33 (≈ 81.4 µM) | 18 (≈ 44.4 µM) | > 33 | > 33 | > 33 | > 33 | > 33 | 33 (≈ 81.4 µM) | > 33 | 4 | > 33 | > 33 | > 33 | 2.41 (≈ 5.94 µM) | 33 (≈ 81.4 µM) | 22 (≈ 54.3 µM) | IC50 (MIP; 48 h): 33 µg/mL (≈ 81.4 µM); IC50 (HCT15): > 33 µg/mL; IC50 (LOX): > 33 µg/mL; IC50 [4]: 0.0006 µM; IC50 (HTB161): 33 µg/mL (≈ 81.4 µM); IC50 (SW948): > 33 µg/mL; IC50 (PC3): > 33 µg/mL; IC50 (A2780DDP): 33 µg/mL (≈ 81.4 µM); IC50 (NEC): > 33 µg/mL |

Reference: patent publication EP0973746B1, “SUBSTITUTED 3-CYANO QUINOLINES” (Wyeth Holdings Corporation, priority 1997, dated 1998)
